# Results: publication PMC7144120, “Psoralen Derivatives as Inhibitors of Mycobacterium tuberculosis Proteasome” (Molecules, 2020)
# How the values were obtained:
# [1] = test system: ß5i of IP; details: cited from earlier work; for RA at 10 µM against ß5i of IP: residual activity of β5i in the presence of 10 μM compound; for IC50: read-out: IC50 against ß5i of IP; for Ki: read-out: Ki against ß5i of IP
# [2] = molecular target: T1, Mtb proteasome (Mycobacterium tuberculosis, UniProt P9WHT9); assay: biochemical; format: biochemical; details: for IC50: 50 µM Suc-LLVY-AMC, 30 min preincubation, 37 °C, triplicate, read-out: IC50 against the Mtb proteasome; for Hill Coefficient: from IC50 curve, Mtb proteasome
# T1 construct: made in house
# T1 sequence (P9WHT9 whole entry, looked up): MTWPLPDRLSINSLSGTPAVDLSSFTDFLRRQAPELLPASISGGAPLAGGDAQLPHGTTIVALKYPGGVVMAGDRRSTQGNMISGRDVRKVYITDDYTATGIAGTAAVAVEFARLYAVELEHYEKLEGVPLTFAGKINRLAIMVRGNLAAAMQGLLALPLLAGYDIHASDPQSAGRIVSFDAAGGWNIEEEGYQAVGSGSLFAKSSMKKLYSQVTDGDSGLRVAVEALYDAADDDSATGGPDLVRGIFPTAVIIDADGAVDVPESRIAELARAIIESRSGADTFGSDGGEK
smiles,measurement,setting,value
Cc1c(CCC(=O)N(C)CC#N)c(=O)oc2cc3occ(C(C)(C)C)c3cc12 [Compound 7],RA at 10 µM against ß5i of IP,[1],100%
same,IC50,[2],8 ± 5 µM
same,Hill Coefficient,[2],0.42
Cc1coc2cc3oc(=O)c(CC(=O)O)c(C)c3cc12 [Compound 29],RA at 10 µM against ß5i of IP,[1],88%
same,RA at 100 µM against Mtb,[2],61%
Cc1c(CCC(=O)ON2C(=O)CCC2=O)c(=O)oc2cc3occ(-c4ccc(Br)cc4)c3cc12 [Compound 67],IC50,[1],1.9 ± 0.9 µM
same,RA at 100 µM against Mtb,[2],96%
Cc1c(CN)c(=O)oc2cc3occ(-c4ccccc4)c3cc12 [Compound 80],RA at 100 µM against Mtb,[2],55%
Cc1c(CCC(=O)O)c(=O)oc2cc3occ(-c4ccco4)c3cc12 [Compound 22],Ki,[1],116 ± 27 µM
same,RA at 100 µM against Mtb,[2],55%
Cc1c(CC(=O)ON2C(=O)CCC2=O)c(=O)oc2cc3occ(-c4ccccc4)c3cc12 [Compound 73],IC50,[1],6.36 ± 0.61 µM
same,RA at 100 µM against Mtb,[2],79%
COc1ccc(-c2coc3cc4oc(=O)c(CC(=O)O)c(C)c4cc23)cc1 [Compound 26],Ki,[1],8.2 ± 0.5 µM
same,RA at 100 µM against Mtb,[2],50%
Cc1c(Cc2nsc(=O)o2)c(=O)oc2cc3occ(-c4ccccc4)c3cc12 [Compound 89],IC50,[1],0.12 ± 0.05 µM
same,RA at 100 µM against Mtb,[2],65%
Cc1c(-c2nsc(=O)o2)c(=O)oc2cc3occ(-c4ccccc4)c3cc12 [Compound 88],IC50,[1],0.013 ± 0.004 µM
same,RA at 100 µM against Mtb,[2],84%
Cc1cc(-c2coc3cc4oc(=O)c(CCC(=O)N(C)CC#N)c(C)c4cc23)c(C)s1 [Compound 43],RA at 10 µM against ß5i of IP,[1],107%
same,RA at 100 µM against Mtb,[2],55%
Cc1c(CC(=O)NCC#N)c(=O)oc2cc3occ(C(C)(C)C)c3cc12 [Compound 61],RA at 10 µM against ß5i of IP,[1],91%
same,RA at 100 µM against Mtb,[2],92%
Cc1coc2cc3oc(=O)c(CCC(=O)N(C)CC#N)c(C)c3cc12 [Compound 42],RA at 10 µM against ß5i of IP,[1],93%
same,RA at 100 µM against Mtb,[2],99%
Cc1c(CC(=O)NCC#N)c(=O)oc2cc3occ(-c4ccc(Br)cc4)c3cc12 [Compound 60],RA at 10 µM against ß5i of IP,[1],105%
same,RA at 100 µM against Mtb,[2],87%
Cc1cc(-c2coc3cc4oc(=O)c(CC(=O)O)c(C)c4cc23)c(C)o1 [Compound 32],Ki,[1],351 ± 48 µM
same,RA at 100 µM against Mtb,[2],100%
Cc1c(CCC(=O)NCC#N)c(=O)oc2cc3occ(C4CCCCC4)c3cc12 [Compound 50],RA at 10 µM against ß5i of IP,[1],102%
same,RA at 100 µM against Mtb,[2],96%
Cc1c(CCC(=O)NCC#N)c(=O)oc2cc3occ(-c4ccccc4)c3cc12 [Compound 9],RA at 10 µM against ß5i of IP,[1],66%
same,IC50,[2],2 ± 2 µM
same,Hill Coefficient,[2],2.27
Cc1c(CCC(=O)NCC#N)c(=O)oc2cc3occ(-c4ccco4)c3cc12 [Compound 49],RA at 10 µM against ß5i of IP,[1],97%
same,RA at 100 µM against Mtb,[2],100%
Cc1c(CCC(=O)O)c(=O)oc2cc3occ(-c4ccc(Br)cc4)c3cc12 [Compound 1],Ki,[1],137 µM
same,IC50,[2],39 ± 7 µM
same,Hill Coefficient,[2],0.69
Cc1c(CC(=O)NCC#N)c(=O)oc2cc3occ(C4CCCCC4)c3cc12 [Compound 65],RA at 10 µM against ß5i of IP,[1],99%
same,RA at 100 µM against Mtb,[2],91%
Cc1c(CCC(=O)N(C)CC#N)c(=O)oc2cc3occ(-c4ccc(Br)cc4)c3cc12 [Compound 41],RA at 10 µM against ß5i of IP,[1],107%
same,RA at 100 µM against Mtb,[2],91%
Cc1c(CCC(=O)NCC#N)c(=O)oc2cc3occ(-c4ccc(Br)cc4)c3cc12 [Compound 46],RA at 10 µM against ß5i of IP,[1],107%
same,RA at 100 µM against Mtb,[2],82%
Cc1cc(-c2coc3cc4oc(=O)c(CC(=O)N(C)CC#N)c(C)c4cc23)c(C)o1 [Compound 57],RA at 10 µM against ß5i of IP,[1],96%
same,RA at 100 µM against Mtb,[2],100%
Cc1c(CC(=O)N(C)CC#N)c(=O)oc2cc3occ(C(C)(C)C)c3cc12 [Compound 53],RA at 10 µM against ß5i of IP,[1],96%
same,RA at 100 µM against Mtb,[2],97%
Cc1cc(-c2coc3cc4oc(=O)c(CC(=O)NCC#N)c(C)c4cc23)c(C)o1 [Compound 10],RA at 10 µM against ß5i of IP,[1],100%
same,IC50,[2],3 ± 2 µM
same,Hill Coefficient,[2],4.46
Cc1c(CC(=O)O)c(=O)oc2cc3occ(-c4ccccc4)c3cc12 [Compound 25],Ki,[1],2.4 ± 0.4 µM
same,RA at 100 µM against Mtb,[2],96%
Cc1coc2cc3oc(=O)c(CC(=O)N(C)CC#N)c(C)c3cc12 [Compound 54],RA at 10 µM against ß5i of IP,[1],99%
same,RA at 100 µM against Mtb,[2],95%
Cc1c(CCC(=O)O)c(=O)oc2cc3occ(-c4ccc(Cl)cc4)c3cc12 [Compound 2],RA at 10 µM against ß5i of IP,[1],83%
same,IC50,[2],15 ± 2 µM
same,Hill Coefficient,[2],1.75
CC=CC(=O)NCc1c(C)c2cc3c(-c4ccccc4)coc3cc2oc1=O [Compound 83],RA at 10 µM against ß5i of IP,[1],116%
same,RA at 100 µM against Mtb,[2],52%
Cc1c(CCC(=O)O)c(=O)oc2c(C)c3occ(-c4ccc(C(=O)O)cc4)c3cc12 [Compound 39],RA at 100 µM against Mtb,[2],98%
Cc1coc2cc3oc(=O)c(CC(=O)NCC#N)c(C)c3cc12 [Compound 62],RA at 100 µM against Mtb,[2],60%
